Experiment: xn = mol fraction of the nth substance listed

CC(C)(C)c1ccccc1 + CCCCCCCCCCCCCCCC
viscosity [mPa·s], 100 kPa
Settings | x2 = 0.0661 | x2 = 0.106 | x2 = 0.2088 | x2 = 0.3087 | x2 = 0.3877 | x2 = 0.5114 | x2 = 0.621 | x2 = 0.6915 | x2 = 0.8377 | x2 = 0.9225
298.15 K | 1.236 | 1.297 | 1.442 | 1.566 | 1.675 | 1.87 | 2.073 | 2.235 | 2.597 | 2.821
308.15 K | 1.065 | 1.111 | 1.235 | 1.343 | 1.427 | 1.584 | 1.749 | 1.868 | 2.138 | 2.298
318.15 K | 0.928 | 0.968 | 1.072 | 1.17 | 1.247 | 1.382 | 1.513 | 1.606 | 1.804 | 1.914

C=CC(=O)OC + CCCCCCCCCCO
viscosity [mPa·s], 101.3 kPa
Settings | x1 = 0.1056 | x1 = 0.2709 | x1 = 0.3442 | x1 = 0.4717 | x1 = 0.5843 | x1 = 0.7574 | x1 = 0.8309 | x1 = 0.8923 | x1 = 0.9483 | x1 = 0.9749
298.15 K | 7.732 | 4.826 | 3.593 | 2.331 | 1.712 | 0.938 | 0.738 | 0.639 | 0.519 | 0.482
308.15 K | 5.659 | 3.531 | 2.828 | 1.792 | 1.425 | 0.804 | 0.641 | 0.54 | 0.459 | 0.432

C=CC(=O)OCCCC + CCCCCCCCCCO
viscosity [mPa·s], 101.3 kPa
Settings | x1 = 0.0646 | x1 = 0.1907 | x1 = 0.2493 | x1 = 0.3612 | x1 = 0.4732 | x1 = 0.665 | x1 = 0.756 | x1 = 0.8402 | x1 = 0.9227 | x1 = 0.9615
298.15 K | 9.073 | 5.873 | 4.998 | 3.536 | 2.535 | 1.653 | 1.303 | 1.07 | 0.905 | 0.843
308.15 K | 6.488 | 4.404 | 3.679 | 2.762 | 2.073 | 1.301 | 1.115 | 0.897 | 0.781 | 0.723

C=CC(=O)OC + CCCCCCCCO
viscosity [mPa·s], 101.3 kPa
Settings | x1 = 0.0847 | x1 = 0.2398 | x1 = 0.3089 | x1 = 0.4269 | x1 = 0.5391 | x1 = 0.7233 | x1 = 0.8011 | x1 = 0.8748 | x1 = 0.9408 | x1 = 0.9698
298.15 K | 5.555 | 3.533 | 2.795 | 1.948 | 1.353 | 0.857 | 0.692 | 0.566 | 0.506 | 0.47
308.15 K | 4.155 | 2.757 | 2.06 | 1.583 | 1.127 | 0.732 | 0.622 | 0.497 | 0.433 | 0.415

C=CC(=O)OCCCC + CCCCCCCCO
viscosity [mPa·s], 101.3 kPa
Settings | x1 = 0.0586 | x1 = 0.1668 | x1 = 0.2181 | x1 = 0.3218 | x1 = 0.4238 | x1 = 0.6226 | x1 = 0.7052 | x1 = 0.8125 | x1 = 0.9095 | x1 = 0.9529
298.15 K | 5.944 | 4.17 | 3.544 | 2.729 | 2.165 | 1.403 | 1.232 | 0.998 | 0.9 | 0.85
308.15 K | 4.393 | 3.177 | 2.752 | 2.096 | 1.689 | 1.146 | 0.992 | 0.841 | 0.753 | 0.715

C=CC(=O)OC + CCCCCCCO
viscosity [mPa·s], 101.3 kPa
Settings | x1 = 0.0803 | x1 = 0.219 | x1 = 0.2841 | x1 = 0.4009 | x1 = 0.5184 | x1 = 0.7017 | x1 = 0.7824 | x1 = 0.8604 | x1 = 0.9347 | x1 = 0.9686
298.15 K | 4.278 | 2.912 | 2.304 | 1.632 | 1.218 | 0.783 | 0.653 | 0.563 | 0.493 | 0.467
308.15 K | 3.262 | 2.282 | 1.857 | 1.348 | 1.032 | 0.677 | 0.568 | 0.49 | 0.428 | 0.411

C=CC(=O)OCCCC + CCCCCCCO
viscosity [mPa·s], 101.3 kPa
Settings | x1 = 0.0538 | x1 = 0.1451 | x1 = 0.1979 | x1 = 0.2976 | x1 = 0.5964 | x1 = 0.6984 | x1 = 0.7966 | x1 = 0.8968 | x1 = 0.9498
298.15 K | 4.656 | 3.548 | 3.084 | 2.394 | 1.35 | 1.12 | 0.981 | 0.869 | 0.824
308.15 K | 3.481 | 2.761 | 2.398 | 1.922 | 1.084 | 0.925 | 0.836 | 0.736 | 0.705

C=CC(=O)OC + CCCCCCO
viscosity [mPa·s], 101.33 kPa
Settings | 308.15 K | 318.15 K
x1 = 0.0466 | 2.892 | 2.186
x1 = 0.149 | 2.128 | 1.687
x1 = 0.2479 | 1.616 | 1.331
x1 = 0.3487 | 1.247 | 1.059
x1 = 0.4466 | 0.989 | 0.859
x1 = 0.4989 | 0.881 | 0.772
x1 = 0.5479 | 0.795 | 0.701
x1 = 0.6418 | 0.662 | 0.588
x1 = 0.7501 | 0.549 | 0.486
x1 = 0.8501 | 0.472 | 0.414
x1 = 0.9438 | 0.417 | 0.36

C=CC(=O)OC + CCCCCO
viscosity [mPa·s], 101.33 kPa
Settings | 308.15 K | 318.15 K
x1 = 0.0469 | 2.288 | 1.82
x1 = 0.148 | 1.725 | 1.406
x1 = 0.2501 | 1.327 | 1.104
x1 = 0.3489 | 1.053 | 0.89
x1 = 0.4436 | 0.86 | 0.735
x1 = 0.5084 | 0.758 | 0.651
x1 = 0.545 | 0.708 | 0.61
x1 = 0.6489 | 0.594 | 0.514
x1 = 0.7484 | 0.513 | 0.445
x1 = 0.8456 | 0.454 | 0.392
x1 = 0.9477 | 0.409 | 0.35

CCCCCCCCCCCCCC(=O)OC + CCCCCO
viscosity [mPa·s], 100 kPa
Settings | x2 = 0.1012 | x2 = 0.2002 | x2 = 0.2997 | x2 = 0.4007 | x2 = 0.4997 | x2 = 0.6007 | x2 = 0.7006 | x2 = 0.7997 | x2 = 0.9
293.15 K | 4.279 | 4.092 | 3.927 | 3.791 | 3.695 | 3.592 | 3.512 | 3.539 | 3.679
298.15 K | 3.789 | 3.61 | 3.474 | 3.371 | 3.249 | 3.162 | 3.1 | 3.1 | 3.191
303.15 K | 3.336 | 3.189 | 3.071 | 2.96 | 2.868 | 2.794 | 2.729 | 2.72 | 2.795
308.15 K | 2.932 | 2.809 | 2.701 | 2.603 | 2.524 | 2.454 | 2.397 | 2.384 | 2.429
313.15 K | 2.641 | 2.533 | 2.43 | 2.342 | 2.268 | 2.197 | 2.15 | 2.126 | 2.159
318.15 K | 2.42 | 2.318 | 2.234 | 2.142 | 2.071 | 2.006 | 1.96 | 1.938 | 1.949
323.15 K | 2.18 | 2.089 | 2.009 | 1.931 | 1.865 | 1.803 | 1.764 | 1.73 | 1.738

CCCCCOC(C)=O + CCCCCO
viscosity [mPa·s], 101.33 kPa
Settings | x1 = 0.0982 | x1 = 0.1951 | x1 = 0.3024 | x1 = 0.4009 | x1 = 0.5015 | x1 = 0.6044 | x1 = 0.7081 | x1 = 0.8063 | x1 = 0.9007
293.15 K | 3.552 | 3.076 | 2.623 | 2.266 | 1.952 | 1.675 | 1.436 | 1.241 | 1.079
303.15 K | 2.583 | 2.279 | 1.984 | 1.747 | 1.534 | 1.343 | 1.174 | 1.034 | 0.915
313.15 K | 2.039 | 1.811 | 1.588 | 1.407 | 1.244 | 1.097 | 0.966 | 0.857 | 0.763
323.15 K | 1.198 | 1.103 | 1.001 | 0.924 | 0.847 | 0.776 | 0.709 | 0.652 | 0.601

CC(C)CO + CCCCO
101 kPa
Settings | viscosity [mPa·s]
293.15 K, x2 = 0.2 | 3.68
293.15 K, x2 = 0.4 | 3.434
293.15 K, x2 = 0.6 | 3.243
293.15 K, x2 = 0.8 | 3.078
298.15 K, x2 = 0.0982 | 3.238
298.15 K, x2 = 0.2007 | 3.111
298.15 K, x2 = 0.301 | 3.016
298.15 K, x2 = 0.4046 | 2.935
298.15 K, x2 = 0.5026 | 2.859
298.15 K, x2 = 0.6261 | 2.772
298.15 K, x2 = 0.7024 | 2.726
298.15 K, x2 = 0.8001 | 2.672
298.15 K, x2 = 0.9178 | 2.608
313.15 K, x2 = 0.2 | 2.022
313.15 K, x2 = 0.4 | 1.937
313.15 K, x2 = 0.6 | 1.872
313.15 K, x2 = 0.8 | 1.818
